Source: patent US20110183389A1, “PRODUCTION OF LACTIC ACID FROM HEMICELLULOSE EXTRACTS” (priority 2009, published 2011)
Read-outs that look alike come from different tables or passages of the source.

System: Bacillus coagulans MXL-9
Conditions: for Ferment Time / Acetic Acid Produced / Ethanol Produced / Formic Acid Produced / Lactic Acid Prod. Rate / Lactic Acid Produced / Lactic Acid Yield / Total Products Yield / Xylose Consumed: pH 6.5, 50° C.; for fermentation time: control consumed xylose within 14 hours
[1] = inhibitor conc. 10 g/L, 20 g/L xylose
[2] = inhibitor conc. 20 g/L, 20 g/L xylose
[3] = inhibitor conc. 30 g/L, 20 g/L xylose
[4] = 30 g/L inhibitor, 20 g/L xylose

Compound	Ferment Time [1]	Acetic Acid Produced (inhibitor conc. 10 g/L)	Ethanol Produced (inhibitor conc. 10 g/L)	Formic Acid Produced (inhibitor conc. 10 g/L)	Lactic Acid Prod. Rate (inhibitor conc. 10 g/L)	Lactic Acid Produced (inhibitor conc. 10 g/L)	Lactic Acid Yield (inhibitor conc. 10 g/L)	Total Products Yield (inhibitor conc. 10 g/L)	Xylose Consumed (inhibitor conc. 10 g/L)	Ferment Time [2]	Acetic Acid Produced (inhibitor conc. 20 g/L)	Ethanol Produced (inhibitor conc. 20 g/L)	Formic Acid Produced (inhibitor conc. 20 g/L)	Lactic Acid Prod. Rate (inhibitor conc. 20 g/L)	Lactic Acid Produced (inhibitor conc. 20 g/L)	Lactic Acid Yield (inhibitor conc. 20 g/L)	Total Products Yield (inhibitor conc. 20 g/L)	Xylose Consumed (inhibitor conc. 20 g/L)	Ferment Time [3]	Acetic Acid Produced (inhibitor conc. 30 g/L)	also measured
[Na] [Na, sodium]	32 h	0.8 g/L	0.0 g/L	1.3 g/L	0.6 g/L/h	18.8 g/L	83.1%	92.4%	22.4 g/L	62 h	0.7 g/L	0.0 g/L	1.3 g/L	0.3 g/L/h	19.6 g/L	85.9%	94.5%	22.7 g/L	150 h	0.0 g/L	lag time (20 g/L inhibitor, xylose): increased the lag time; overall product yield (20 g/L inhibitor, xylose): did not affect overall product yield; inhibition of xylose fermentation (30 g/L inhibitor): completely inhibitory; cell growth (30 g/L inhibitor, over the course of 6 days): no cell growth occurred; Ethanol Produced (inhibitor conc. 30 g/L): 0.0 g/L; Formic Acid Produced (inhibitor conc. 30 g/L): 0.0 g/L; Lactic Acid Prod. Rate (inhibitor conc. 30 g/L): 0.0 g/L/h; Lactic Acid Produced (inhibitor conc. 30 g/L): 0.0 g/L; Lactic Acid Yield (inhibitor conc. 30 g/L): 2.6%; Total Products Yield (inhibitor conc. 30 g/L): 2.6%; Xylose Consumed (inhibitor conc. 30 g/L): 0.8 g/L
CC(=O)O [HAc, acetic acid]	17 h	0.0 g/L	1.0 g/L	1.1 g/L	1.0 g/L/h	17.3 g/L	81.0%	90.7%	21.4 g/L	22 h	0.0 g/L	0.8 g/L	0.5 g/L	0.9 g/L/h	19.3 g/L	93.6%	99.8%	20.6 g/L	60 h	0.0 g/L	fermentation time (10 g/L inhibitor): complete in under a day; fermentation time (20 g/L inhibitor): complete in under a day; lag phase [4]: longer lag phase; overall lactic acid yield [4]: not diminished; fermentation time (30 g/L inhibitor): two days; Ethanol Produced (inhibitor conc. 30 g/L): 0.4 g/L; Formic Acid Produced (inhibitor conc. 30 g/L): 0.4 g/L; Lactic Acid Prod. Rate (inhibitor conc. 30 g/L): 0.3 g/L/h; Lactic Acid Produced (inhibitor conc. 30 g/L): 18.5 g/L; Lactic Acid Yield (inhibitor conc. 30 g/L): 91.4%; Total Products Yield (inhibitor conc. 30 g/L): 95.3%; Xylose Consumed (inhibitor conc. 30 g/L): 20.2 g/L
